# In PMC10397409, “The action of physiological and synthetic steroids on the calcium channel CatSper in human sperm” (Frontiers in Cell and Developmental Biology, 2023):
# “And” between values parts separate entries of the source, which are not always exact repeats. Equal values may be shown once. Read-outs that look alike come from different tables or passages of the source.
# Columns and labels:
# CatSper [1] = target: T1, CatSper (Homo sapiens, UniProt Q7RTX7+Q86XQ3+Q8NEC5+Q96P56); test: Steroid-induced increase in [Ca2+]i in human sperm (Fluo-4 HTS assay, screen 1 activators); assay type: cell-based; settings: for Emax: read-out: Max amplitude (%) (± SD)
# T1 construct: Motile spermatozoa were selected by a ‘swim-up’ procedure; endogenous in cells; host or cells: motile human spermatozoa (swim-up) from healthy donors
# Protocol: (§1) Briefly, motile spermatozoa were selected by swim-up and labeled with the fluorescent calcium indicator Fluo-4 a.m. to image changes in [Ca^2+]i. After centrifugation to remove excess dye, Fluo-4 AM loaded cells were distributed in a 384-wells plate to obtain ∼125,000 cells/well. After measuring basal fluorescence, a first injection of compounds was performed in order to evaluate their effect on [Ca^2+]i alone. This first screen is therefore considered as a screen to search for ‘activators’. Fluorescence was recorded for 12 min during which sperm cells were continuously exposed to compounds. P4 or PGE1 were then added in the same wells to evaluate whether the tested compounds can reduce the ligand-induced activation of CatSper. This second screen was therefore considered to be a search for CatSper ‘inhibitors’.
# Human semen samples were collected from healthy donors by masturbation after a recommended sexual abstinence period of minimum 2 days. Semen samples were allowed to liquefy at 37°C for 15–30 min. […] Motile sperm were allowed to swim at 37°C for 1 hour. The supernatant was collected in 15 mL Falcon tubes and washed twice by centrifugation at 700 x g for 20 min. Sperm were supplemented with 3 mg/mL HSA.
# 20 μL of cells (corresponding to ∼125,000 cells) loaded with Fluo-4 a.m. were dispensed in a 384-wells plate (Corning, NY, United States) to allow fluorescence measurement. The dye was excited at 480 nm, and emission was recorded at 530 nm. The change in [Ca^2+]i was assessed simultaneously in all wells using a Functional Drug Screening System (FDSS/μCELL) (Hamamatsu Phototonics K.K., Yokohama, Japan) at 37°C. Basal fluorescence was first measured for 30 s. […] P4 and PGE1 were tested at a near-saturating concentration in the HTS in order to evaluate a potential additive or synergistic effect induced by the compounds. […] For alkalization-induced Ca^2+ measurement, NH4Cl was used as a positive control at a final concentration of 10 mM. […] The Prestwick library was tested in technical duplicate. Ca^2+ response curves were normalized using the following formula F−F0/F0×100 , where F 0 is the average of the basal fluorescence prior to the addition of the compound of interest and F corresponds to the fluorescence value at each time point. The ∆F/F0 of the vehicle control (DMSO) was subtracted from all the other values to adjust for dilution and pipetting artifacts. The values of all compounds were normalized to their respective controls.
# Data are shown as mean ± standard deviation (SD) with “n” referring to the number of independent experiments performed using sperm samples from ≥3 different donors. Statistical analysis and fitting of dose-response relations were performed using GraphPad Prism 8.1.1 (Prism, La Jolla, United States). To generate sigmoidal curves, the concentrations were converted to their respective log values, and the data were normalized using the following formula: 100⋅x/Fmax , where Fmax is the maximum value of the positive control. A four-parameter Hill equation with a variable Hill coefficient was fitted to generate the EC02, EC50, and IC50. Statistical significance between control and treated conditions was evaluated using a one-way analysis of variance (ANOVA), followed by Dunnett´s test. A p-value <0.05 was considered significant.
# CatSper [2] = target: T1, CatSper; test: Inhibition of P4-induced Ca2+ influx in human sperm (screen 2 inhibitors); assay type: cell-based
# Protocol: as §1
# Human semen samples were collected from healthy donors by masturbation after a recommended sexual abstinence period of minimum 2 days. Semen samples were allowed to liquefy at 37°C for 15–30 min. Motile spermatozoa were selected by a ‘swim-up’ procedure as previously described ([Strünker et al., 2011]). Briefly, 1 mL of semen was deposited in a 45°-inclined 50 mL Falcon tube with 4 mL of Human Tubular Fluid (HTF) medium containing: 93.8 mM NaCl, 4.7 mM KCl, 0.2 mM MgSO4, 0.37 mM KH2PO4, 2.04 mM CaCl2, 20.98 mM HEPES, 2.78 mM glucose, 21.4 mM Na-lactate, 4 mM NaHCO3, 0.33 mM Na-pyruvate, and the pH was adjusted to 7.35. Motile sperm were allowed to swim at 37°C for 1 hour. The supernatant was collected in 15 mL Falcon tubes and washed twice by centrifugation at 700 x g for 20 min. Sperm were supplemented with 3 mg/mL HSA. Written informed consent was obtained from all donors prior to donation and approved by the Cantonal Ethics Committee of the State of Geneva (CCER #14-147).
# Cells were loaded with the fluorescent Ca^2+ indicator Fluo-4 AM at a final concentration of 2.5 µM for 30 min at 37°C. Excess dye was washed via centrifugation at 700 x g for 20 min and sperm were resuspended in HTF medium to obtain a final concentration of 6.25 x 10^6 cells/mL. 20 μL of cells (corresponding to ∼125,000 cells) loaded with Fluo-4 a.m. were dispensed in a 384-wells plate (Corning, NY, United States) to allow fluorescence measurement. The dye was excited at 480 nm, and emission was recorded at 530 nm. The change in [Ca^2+]i was assessed simultaneously in all wells using a Functional Drug Screening System (FDSS/μCELL) (Hamamatsu Phototonics K.K., Yokohama, Japan) at 37°C. Basal fluorescence was first measured for 30 s. […] P4 and PGE1 were tested at a near-saturating concentration in the HTS in order to evaluate a potential additive or synergistic effect induced by the compounds. Non-specific CatSper inhibitor MDL 12330A was used as a negative control at final concentration of 20 µM while DMSO was used as a vehicle control. For alkalization-induced Ca^2+ measurement, NH4Cl was used as a positive control at a final concentration of 10 mM. Fluorescence was recorded for a total of 16.5 min: 30 s before injection, 12 min after the first injection of the tested compounds, and 4 min after the second injection of either P4 or PGE1. The Prestwick library was tested in technical duplicate. Ca^2+ response curves were normalized using the following formula F−F0/F0×100 , where F 0 is the average of the basal fluorescence prior to the addition of the compound of interest and F corresponds to the fluorescence value at each time point. The ∆F/F0 of the vehicle control (DMSO) was subtracted from all the other values to adjust for dilution and pipetting artifacts. The values of all compounds were normalized to their respective controls.
# [3] = maximal amplitude of steroid-induced [Ca2+]i increase, relative to P4, 3 independent experiments
# [4] = pooled from 3 independent experiments, read-out: Mean EC50 µM (±SD)
# [5] = P4-induced response, pooled from 3 independent experiments, read-out: Mean IC50 (P4) µM (±SD)
# [6] = EC50 (±SD), increase in [Ca2+]i, dose-response 90 µM to 0.3 nM
# [7] = Mean EC50 µM (±SD), pooled from 3 independent experiments
# [8] = IC50 (±SD), inhibition of P4-induced Ca2+ response, dose-response 90 µM to 0.3 nM
# [9] = Mean IC50 (P4) µM (±SD), P4-induced response, pooled from 3 independent experiments
SMILES,EC50 (CatSper [1]; [4]),Max P4 inhibition (%) (± SD) (CatSper [2]; 3 independent experiments),IC50 (CatSper [2]; [5]),Emax (CatSper [1]),IC50 (CatSper [2]; [9]),also measured
C#C[C@]1(OC(C)=O)CC[C@H]2[C@@H]3CCC4=CC(=NO)CC[C@@H]4[C@H]3CC[C@@]21CC (mixture of isomers) [norgestimate],0.918 µM,53 (±5) %,8.05 µM,,,Emax (CatSper [1]; [3]): 79%
C[C@]12CC[C@@H](O)C[C@H]1CC[C@@H]1[C@@H]2CC[C@]2(C)C(=O)CC[C@@H]12 [3-alpha-hydroxy-5-beta-androstan-17-one],0.915 µM,66 (±2) %,1.52 µM,,,Max amplitude (%) (± SD) (CatSper [1]; [3]): 66 (±2) %
C[C@]12CC[C@H]3[C@@H](CCC4=CC(=O)CC[C@@]43C)[C@@H]1CC[C@@H]2C(=O)CO [Deoxycorticosterone],,86 (±3) %,,94%,,"EC50 (CatSper [1]; [6]): 0.302 µM; EC50 (CatSper [1]; EC50, increase in [Ca2+]i): 0.3 µM; EC50 (CatSper [1]; [7]): 0.295 µM; reduction of the P4 response (CatSper [2]): more than 86%; IC50 (CatSper [2]; [8]): 0.523 µM; IC50 (CatSper [2]; IC50, reduction of P4 response): 0.5 µM"
CC(=O)[C@H]1CC[C@H]2[C@@H]3C[C@H](C)C4=CC(=O)CC[C@]4(C)[C@H]3[C@@H](O)C[C@]12C [Medrysone],0.23 µM,83 (±4) %,0.471 µM,,,"EC50 (CatSper [1]; increase in [Ca2+]i, dose-response 90 µM to 0.3 nM, read-out: EC50 (±SD)): 0.24 µM; Emax (CatSper [1]; [3]): 104%; IC50 (CatSper [2]; inhibition of P4-induced Ca2+ response, dose-response 90 µM to 0.3 nM, read-out: IC50 (±SD)): 0.569 µM"
C[C@]12CC[C@H]3[C@@H](CCC4=CC(=O)CC[C@@H]43)[C@@H]1CC[C@@H]2O [Nandrolone],,85 (±1) %,,98%,0.729 µM,EC02 compared with reported maximum concentration in blood serum (CatSper [1]): EC02 below the reported maximum concentration found in blood serum; EC50 (CatSper [1]; [6]): 0.306 µM; increase in [Ca2+]i (CatSper [1]; at low concentrations in the nanomolar range): 30%; IC50 (CatSper [2]; [8]): 0.711 µM
CC(=O)C1CCC2C3CC[C@H]4CC(=O)CC[C@]4(C)C3CC[C@]12C (some centres unmarked) [S46],,90 (±6) %,,141%,,"EC50 (CatSper [1]; EC50, increase in [Ca2+]i in human sperm): 0.032 µM and 0.073 µM; IC50 (CatSper [2]; IC50, decrease of response to P4): 0.046 µM and 0.138 µM"
CC12CCC(O)CC1CCC1C2CCC2(C)C1CCC2(C)O (centres unmarked) [S64],,55 (±1) %,,65%,0.682 µM,EC50 (CatSper [1]; [7]): 0.265 µM
CC12CCC3C(CC[C@H]4CC(=O)CCC34C)C1CCC2O (some centres unmarked) [S65],,95 (±1) %,,91%,,
CC12CCC(O)CC1=CCC1C2CCC2(C)C(C(=O)O)CCC12 (centres unmarked) [S67],,86 (±3) %,,80%,0.253 µM,EC50 (CatSper [1]; [7]): 0.108 µM
C[C@]12CC[C@H]3[C@@H](CC[C@H]4C[C@H](O)CC[C@@H]43)[C@@H]1CCC2=O [S85],,96 (±2) %,,99%,0.495 µM,EC50 (CatSper [1]; [7]): 0.259 µM
C[C@]12CC[C@H]3[C@@H](CCC4=CC(=O)CC[C@@]43C)[C@@H]1CC[C@@H]2O [Testosterone],,81 (±6) %,,87%,1.09 µM,EC50 (CatSper [1]; [6]): 0.407 µM
C[C@]12CCC(=O)C=C1CC[C@@H]1[C@@H]2C(=O)C[C@]2(C)C(=O)CC[C@@H]12 [adrenosterone],14.5 µM,24 (±3) %,30.8 µM,,,Max amplitude (%) (± SD) (CatSper [1]; [3]): 26 (±2) %
C[C@]12CCC(=O)C=C1C=C[C@@H]1[C@@H]2CC[C@@]2(C)[C@H]1CC[C@@]21CCC(=O)O1 [canrenone],7.51 µM,49 (±1) %,,,,Emax (CatSper [1]; [3]): 69%
C[C@]12C[C@H](O)[C@H]3[C@@H](CCC4=CC(=O)CC[C@@]43C)[C@@H]1CC[C@@H]2C(=O)CO [corticosterone],2.94 µM,49 (±5) %,6.1 µM,,,Emax (CatSper [1]; [3]): 55%
C[C@]12CC[C@H]3C(=CCc4cc(O)ccc43)[C@@H]1CCC2=O [equilin],,,,62%,,EC50 (CatSper [1]): 0.999 µM; IC50 (CatSper [2]): 1.85 µM; Max P4 inhibition (%) (± SD) (CatSper [2]): 50 (±11) %
C[C@]12CC[C@@H]3c4ccc(O)cc4CC[C@H]3[C@@H]1CC[C@@H]2O [estradiol-17 beta],0.761 µM,67 (±3) %,1.45 µM,,,Max amplitude (%) (± SD) (CatSper [1]; [3]): 75 (±8) %
C[C@]12CC[C@@H]3c4ccc(O)cc4CC[C@H]3[C@@H]1CCC2=O [estrone],,67 (±2) %,,,0.56 µM,EC50 (CatSper [1]; [7]): 0.267 µM; Emax (CatSper [1]; [3]): 49%
